Measured values published in ChEMBL document CHEMBL4004803, “Syntheses and antibacterial activity of soluble 9-bromo substituted indolizinoquinoline-5,12-dione derivatives” (Eur J Med Chem, 2017).

Tests used:
Staphylococcus aureus [1] = test: Antibacterial activity against methicillin-resistant Staphylococcus aureus 122045 clinical isolate after 20 to 24 hrs by two-fold microdilution method; assay type: functional
Staphylococcus aureus [2] = test: Antibacterial activity against methicillin-resistant Staphylococcus aureus 112106 clinical isolate after 20 to 24 hrs by two-fold microdilution method; assay type: functional
Staphylococcus aureus [3] = test: Antibacterial activity against methicillin-resistant Staphylococcus aureus 1024010 clinical isolate after 20 to 24 hrs by two-fold microdilution method; assay type: functional
Staphylococcus aureus [4] = test: Antibacterial activity against methicillin-resistant Staphylococcus aureus 109244 clinical isolate after 20 to 24 hrs by two-fold microdilution method; assay type: functional
Staphylococcus aureus [5] = test: Antibacterial activity against methicillin-resistant Staphylococcus aureus 1111047-1 clinical isolate after 20 to 24 hrs by two-fold microdilution method; assay type: functional
Staphylococcus aureus [6] = test: Antibacterial activity against methicillin-resistant Staphylococcus aureus GLH14 clinical isolate after 20 to 24 hrs by two-fold microdilution method; assay type: functional
Staphylococcus aureus [7] = test: Antibacterial activity against methicillin-resistant Staphylococcus aureus 110910-2 clinical isolate after 20 to 24 hrs by two-fold microdilution method; assay type: functional
Staphylococcus aureus [8] = test: Antibacterial activity against methicillin-resistant Staphylococcus aureus 1212057-1 clinical isolate after 20 to 24 hrs by two-fold microdilution method; assay type: functional
Staphylococcus aureus [9] = test: Antibacterial activity against methicillin-resistant Staphylococcus aureus 109016 clinical isolate after 20 to 24 hrs by two-fold microdilution method; assay type: functional
Staphylococcus aureus [10] = test: Antibacterial activity against methicillin-resistant Staphylococcus aureus 503025 clinical isolate after 20 to 24 hrs by two-fold microdilution method; assay type: functional
Staphylococcus aureus [11] = test: Antibacterial activity against methicillin-resistant Staphylococcus aureus 1024004-2 clinical isolate after 20 to 24 hrs by two-fold microdilution method; assay type: functional
Staphylococcus aureus [12] = test: Antibacterial activity against methicillin-resistant Staphylococcus aureus 1012029 clinical isolate after 20 to 24 hrs by two-fold microdilution method; assay type: functional
Staphylococcus aureus [13] = test: Antibacterial activity against methicillin-resistant Staphylococcus aureus 19950 clinical isolate after 20 to 24 hrs by two-fold microdilution method; assay type: functional
Staphylococcus aureus [14] = test: Antibacterial activity against methicillin-resistant Staphylococcus aureus 130031 clinical isolate after 20 to 24 hrs by two-fold microdilution method; assay type: functional
Staphylococcus aureus [15] = test: Antibacterial activity against methicillin-resistant Staphylococcus aureus 1101016 clinical isolate after 20 to 24 hrs by two-fold microdilution method; assay type: functional
Staphylococcus aureus [16] = test: Antibacterial activity against methicillin-resistant Staphylococcus aureus 121026 clinical isolate after 20 to 24 hrs by two-fold microdilution method; assay type: functional
[17] = system: Staphylococcus epidermidis; test: Antibacterial activity against Staphylococcus epidermidis ATCC 12228 after 20 to 24 hrs by two-fold microdilution method; assay type: functional
Streptococcus pyogenes = test: Antibacterial activity against Streptococcus pyogenes ATCC 19615 after 20 to 24 hrs by two-fold microdilution method; assay type: functional
[18] = Solubility of the compound in water at 25 degC measured after shaking for 4 hrs by UV method; assay type: physicochemical; conditions: buffer, 4 h
Staphylococcus aureus [19] = test: Antibacterial activity against methicillin-resistant Staphylococcus aureus 125025 clinical isolate after 20 to 24 hrs by two-fold microdilution method; assay type: functional
Staphylococcus aureus [20] = test: Antibacterial activity against methicillin-resistant Staphylococcus aureus 1128040 clinical isolate after 20 to 24 hrs by two-fold microdilution method; assay type: functional
Staphylococcus aureus [21] = test: Antibacterial activity against methicillin-resistant Staphylococcus aureus 121969 clinical isolate after 20 to 24 hrs by two-fold microdilution method; assay type: functional
Staphylococcus aureus [22] = test: Antibacterial activity against methicillin-resistant Staphylococcus aureus 3250299 clinical isolate after 20 to 24 hrs by two-fold microdilution method; assay type: functional
Staphylococcus aureus [23] = test: Antibacterial activity against methicillin-resistant Staphylococcus aureus 519028 clinical isolate after 20 to 24 hrs by two-fold microdilution method; assay type: functional
Staphylococcus aureus [24] = test: Antibacterial activity against methicillin-resistant Staphylococcus aureus 316038 clinical isolate after 20 to 24 hrs by two-fold microdilution method; assay type: functional
Staphylococcus aureus [25] = test: Antibacterial activity against methicillin-resistant Staphylococcus aureus 919205 clinical isolate after 20 to 24 hrs by two-fold microdilution method; assay type: functional
Staphylococcus aureus [26] = test: Antibacterial activity against methicillin-resistant Staphylococcus aureus 1103006 clinical isolate after 20 to 24 hrs by two-fold microdilution method; assay type: functional
Staphylococcus aureus [27] = test: Antibacterial activity against methicillin-resistant Staphylococcus aureus 215073 clinical isolate after 20 to 24 hrs by two-fold microdilution method; assay type: functional
Staphylococcus aureus [28] = test: Antibacterial activity against methicillin-resistant Staphylococcus aureus 1029025 clinical isolate after 20 to 24 hrs by two-fold microdilution method; assay type: functional
Staphylococcus aureus [29] = test: Antibacterial activity against methicillin-resistant Staphylococcus aureus 1108204 clinical isolate after 20 to 24 hrs by two-fold microdilution method; assay type: functional
Staphylococcus aureus [30] = test: Antibacterial activity against methicillin-resistant Staphylococcus aureus 502025 clinical isolate after 20 to 24 hrs by two-fold microdilution method; assay type: functional
Staphylococcus aureus [31] = test: Antibacterial activity against methicillin-resistant Staphylococcus aureus 110328-1 clinical isolate after 20 to 24 hrs by two-fold microdilution method; assay type: functional
Staphylococcus aureus [32] = test: Antibacterial activity against methicillin-resistant Staphylococcus aureus 12308 clinical isolate after 20 to 24 hrs by two-fold microdilution method; assay type: functional
Staphylococcus aureus [33] = test: Antibacterial activity against methicillin-resistant Staphylococcus aureus 1106003 clinical isolate after 20 to 24 hrs by two-fold microdilution method; assay type: functional
Staphylococcus aureus [34] = test: Antibacterial activity against methicillin-resistant Staphylococcus aureus 1214023 clinical isolate after 20 to 24 hrs by two-fold microdilution method; assay type: functional
Staphylococcus aureus [35] = test: Antibacterial activity against methicillin-resistant Staphylococcus aureus 305026 clinical isolate after 20 to 24 hrs by two-fold microdilution method; assay type: functional
Staphylococcus aureus [36] = test: Antibacterial activity against methicillin-resistant Staphylococcus aureus 1216052 clinical isolate after 20 to 24 hrs by two-fold microdilution method; assay type: functional
Staphylococcus aureus [37] = test: Antibacterial activity against methicillin-resistant Staphylococcus aureus 316031 clinical isolate after 20 to 24 hrs by two-fold microdilution method; assay type: functional
Staphylococcus aureus [38] = test: Antibacterial activity against methicillin-resistant Staphylococcus aureus 831024 clinical isolate after 20 to 24 hrs by two-fold microdilution method; assay type: functional
Staphylococcus aureus [39] = test: Antibacterial activity against methicillin-resistant Staphylococcus aureus 1023043 clinical isolate after 20 to 24 hrs by two-fold microdilution method; assay type: functional
Staphylococcus aureus [40] = test: Antibacterial activity against methicillin-resistant Staphylococcus aureus GLH15 clinical isolate after 20 to 24 hrs by two-fold microdilution method; assay type: functional
Staphylococcus aureus [41] = test: Antibacterial activity against methicillin-resistant Staphylococcus aureus 1211026 clinical isolate after 20 to 24 hrs by two-fold microdilution method; assay type: functional
Staphylococcus aureus [42] = test: Antibacterial activity against methicillin-resistant Staphylococcus aureus 518036 clinical isolate after 20 to 24 hrs by two-fold microdilution method; assay type: functional
Staphylococcus aureus [43] = test: Antibacterial activity against methicillin-resistant Staphylococcus aureus 122710-2 clinical isolate after 20 to 24 hrs by two-fold microdilution method; assay type: functional
Staphylococcus aureus [44] = test: Antibacterial activity against methicillin-resistant Staphylococcus aureus 214026 clinical isolate after 20 to 24 hrs by two-fold microdilution method; assay type: functional
Staphylococcus aureus [45] = test: Antibacterial activity against methicillin-resistant Staphylococcus aureus 110325 clinical isolate after 20 to 24 hrs by two-fold microdilution method; assay type: functional
Staphylococcus aureus [46] = test: Antibacterial activity against methicillin-resistant Staphylococcus aureus 20339 clinical isolate after 20 to 24 hrs by two-fold microdilution method; assay type: functional

CN(C)CCCCCOC(=O)c1c2c(n3cc(Br)ccc13)C(=O)c1ncccc1C2=O
4 µg/mL: MIC (Staphylococcus aureus [36])
0.25 µg/mL: MIC (Staphylococcus aureus [1]) | MIC (Staphylococcus aureus [2]) | MIC (Staphylococcus aureus [3]) | MIC (Staphylococcus aureus [9]) | MIC (Staphylococcus aureus [12]) | MIC (Staphylococcus aureus [15]) | MIC (Staphylococcus aureus [20]) | MIC (Staphylococcus aureus [21]) | MIC (Staphylococcus aureus [22]) | MIC (Staphylococcus aureus [24]) | MIC (Staphylococcus aureus [28]) | MIC (Staphylococcus aureus [39]) | MIC (Staphylococcus aureus [40]) | MIC (Staphylococcus aureus [41]) | MIC (Staphylococcus aureus [42]) | MIC (Staphylococcus aureus [43])
≤ 0.0078 µg/mL: MIC [17] | MIC (Staphylococcus aureus [34])
0.5 µg/mL: MIC (Staphylococcus aureus [4]) | MIC (Staphylococcus aureus [5]) | MIC (Staphylococcus aureus [6]) | MIC (Staphylococcus aureus [7]) | MIC (Staphylococcus aureus [10]) | MIC (Staphylococcus aureus [11]) | MIC (Staphylococcus aureus [13]) | MIC (Staphylococcus aureus [14]) | MIC (Staphylococcus aureus [19]) | MIC (Staphylococcus aureus [27]) | MIC (Staphylococcus aureus [30]) | MIC (Staphylococcus aureus [37]) | MIC (Staphylococcus aureus [46])
0.063 µg/mL: MIC (Staphylococcus aureus [31])
2 µg/mL: MIC (Streptococcus pyogenes)
Insoluble: solubility [18]
0.125 µg/mL: MIC (Staphylococcus aureus [8]) | MIC (Staphylococcus aureus [16]) | MIC (Staphylococcus aureus [23]) | MIC (Staphylococcus aureus [25]) | MIC (Staphylococcus aureus [29]) | MIC (Staphylococcus aureus [32]) | MIC (Staphylococcus aureus [35]) | MIC (Staphylococcus aureus [38]) | MIC (Staphylococcus aureus [44]) | MIC (Staphylococcus aureus [45])
16 µg/mL: MIC (Staphylococcus aureus [26]) | MIC (Staphylococcus aureus [33])
